Measured values published in patent publication USRE39034E1, “Molecule involved in binding of sperm to egg surfaces and procedures for use of this molecule to enhance or decrease potential fertility” (The Penn State Research Foundation, priority 1996, dated 2006).
Entries after “also recorded” stand apart in the source; their conditions may differ. Bridges are numbered along the chain shown (N, C = ends). Where no end group is shown, it is not given here. [ ]: non-standard residue; d: D form.

B1: human saposin B: human saposin produced by proteolytic cleavage of prosaposin (protein, UniProt P07602 195-273, looked up)
Saposin-B: GDVCQDCIQMVTDIQTAVRTNSTFVQALVEHVKEECDRLGPGMADICKNYISQYSEIAIQMMMHMQPKEICALVGFCDE
modifications: Saposin-B
notes: human saposin produced by proteolytic cleavage of prosaposin
B2: saposin A: human saposin produced by proteolytic cleavage of prosaposin (protein, UniProt P07602 60-142, looked up)
Saposin-A: SLPCDICKDVVTAAGDMLKDNATEEEILVYLEKTCDWLPKPNMSASCKEIVDSYLPVILDIIKGEMSRPGEVCSALNLCESLQ
modifications: Saposin-A
notes: as for B1
B3: saposin C: human saposin produced by proteolytic cleavage of prosaposin (protein, UniProt P07602 311-390, looked up)
Saposin-C: SDVYCEVCEFLVKEVTKLIDNNKTEKEILDAFDKMCSKLPKSLSEECQEVVDTYGSSILSILLEEVSPELVCSMLHLCSG
modifications: Saposin-C
notes: as for B1
B4: saposin D: human saposin produced by proteolytic cleavage of prosaposin (protein, UniProt P07602 405-486, looked up)
Saposin-D: DGGFCEVCKKLVGYLDRNLEKNSTKQEILAALEKGCSFLPDPYQKQCDQFVAEYEPVLIEILVEVMDPSFVCLKIGACPSAH
modifications: Saposin-D
notes: as for B1

How the values were obtained:
[1] = tested on: frozen-thawed rooster sperm binding to an extract of hen's egg membrane; experiment: In vitro microwell sperm-egg binding assay, sperm treated with peptides (fluorescent plate reader); assay type: cell-based; details: for Activity relative to SEQ ID NO: 1 / Biological activity / sperm binding capability (in words) / Peptide concentration which, after tenfold dilution of the sperm suspension, provided maximum binding / Concentration at which binding activity was induced (active at): frozen-thawed rooster sperm; for Peptide concentration which, after tenfold dilution of the sperm suspension, provided maximum binding: hen's egg membrane extract in microwell plate
Text: The biological activity of the native UPSEBP prepared from rooster sperm and synthetic amino acid sequences were compared in an in vitro assay of sperm binding described in copending U.S. patent application Ser. No. 08/234,448. This microwell assay used plates in which the wells were coated with a binding substrate prepared from an extract of hen's egg vitelline membrane. The thawed rooster sperm, known to be reduced in UPSEBP, were washed once with isotonic salt solutions, resuspended at 50×10^5/0.1 ml, and incubated 30 minutes with 0.02-50 μg/0.5 ml native UPSEBP or synthetic peptide. Then 0.1 ml of a suspension of about 5×10^6 sperm were placed into each of triplicate wells in a microwell plate. After 2 hours of incubation at 37° C., unbound sperm were washed away and bound sperm were stained and counted using a microscope. The number of sperm bound was considered to be a measure of biological activity because there is a high correlation between the number of rooster sperm bound in vitro to such an egg extract and the fertilizing potential of sperm in that sample, as quantified by the percentage of eggs hatching young chicks after artificial insemination. Table No. 1 presents the amino acid sequence of synthetic peptides and the resulting binding capacity as compared to native UPSEBP (full sequence not provided). Initial evaluations of the capabilities of SEQ ID NO:1 through SEQ ID NO:11, native UPSEBP and rat SGP-1 to enhance sperm binding to an egg-membrane substrate were based on visual counts of bound sperm and conducted over a number of months. The binding data for SEQ ID NO:1 through SEQ ID NO:12 and native UPSEBP and rat SGP-1 presented in Table No. 1 were obtained as two data sets using a recent version of that sperm-egg binding assay in which the bound sperm were stained with a fluorescent dye binding to DNA and quantified using a fluorescent microwell-plate reader, by techniques known to those skilled in the art. The amino acid sequences of portions of human prosaposin (SEQ ID NO:15) and mouse prosaposin (SEQ ID NO:16) also are as shown. [table]

[2] = tested on: frozen-thawed rooster sperm; experiment: Restoration of binding capability of frozen-thawed rooster sperm to hen's egg membrane extract (Examples 1, 2, 6, 7); assay type: cell-based; details: FIG. 2
Text: Although the invention has been described generally above, particular examples give additional illustration of the products and method steps typical of the present polypeptide and uses thereof. The data presented in FIGS. 1 to 3 and 6 to 9 show the number of sperm bound per unit area of laid hen's egg perivitelline membrane, or data derived from such binding, or bound to a substrate prepared using an extract from such perivitelline membranes pursuant to the method disclosed in co-pending patent application Ser. No. 08/234,448. Except when noted, native protein extracted from rooster sperm with UPSEBP activity was used.
Freshly collected rooster sperm were cryopreserved, thawed and processed to remove glycerol. One portion of the thawed sperm received crude UPSEBP at a concentration of 2 μg protein per 10^6 sperm. Samples containing 1-10×10^6 sperm were placed into wells coated with an extract of hen's egg membrane and incubated 180 minutes. Non-bound sperm were removed by washing, and bound sperm were stained with diamido-2-phenylindole and counted using an epifluorescent microscope.
Rooster sperm subjected to a cryopreservation cycle were treated with increasing amounts of partially purified UPSEBP and subject to a standard binding assay, together with aliquots of unfrozen (fresh) sperm.
Frozen-thawed turkey sperm were exposed to rooster UPSEBP or semi-purified SGP-1.

Molecule | Activity relative to SEQ ID NO: 1 [1] | Biological activity / sperm binding capability (in words) [1] | Peptide concentration which, after tenfold dilution of the sperm suspension, provided maximum binding [1] | also measured
SEQ ID NO:2: Table 1 sequence: Tyr-Pro-Gln-Asp-Arg-Thr-Arg-Ser-Gln-Pro-Gln-Pro (YPQDRTRSQPQP; Portion of SEQ ID NO 1 showing lower binding capability.) | 0.0006 | lower binding capability | 300 nmol | –
SEQ ID NO:3: Table 1 sequence: Gln-Pro-Gln-Pro-Lys-Ala-Asn (QPQPKAN; Portion of SEQ ID NO 1 essentially devoid of binding capability.) | 0.0001 | essentially devoid of binding capability | 2,125 nanomoles | –
SEQ ID NO:11: Table 1 sequence: D-Leu-Tyr-Pro-Gln-Asp-Arg-Thr-Arg-Ser-Gln-Pro-Gln-Pro-Lys-Ala-Asn ([dL]YPQDRTRSQPQPKAN) | 0.001 | reduced activity relative to SEQ ID NO:1 | 25 nmol | –
SEQ ID NO:5: Table 1 sequence: Pro-Gln-Pro-Lys-Ala-Asn-Glu-Asp-Val-Cys-Gln-Asp-Cys-Met-Lys-Leu-Val-Thr-Asp (PQPKANEDVCQDCMKLVTD; Addition of amino acids distal to the terminal asparagine of SEQ ID NO 3 does not substantially change biological activity.) | 0.0003 | – | 510 nmol | –
YPQDRTRSQPQPKAN [SEQ ID NO:1] | 1 | greater biological activity than SEQ ID NO:2 through SEQ ID NO:8 | 3.17 nmol | Biological activity / sperm binding capability (in words) ([1]; listed as SEQ NO:1): substantial binding activity; Number of sperm bound to the egg membrane substrate ([1]; nanomolar concentrations of peptide): approximately twice as many sperm bound
YPQDRPRSQPQPKAN [SEQ ID NO:9] | 0.94 | substantial binding activity; also recorded: very high biological activity, approximately equal to that of SEQ ID NO:1 | 0.18 nmol | –
SEQ ID NO:8: Table 1 sequence: Phe-Phe-Tyr-Pro-Gln-Asp-Arg-Thr-Arg-Ser-Gln-Pro-Gln-Pro (FFYPQDRTRSQPQP; Addition of a phenylalanine group to the NH2 end of SEQ ID NO 2 does not substantially suppress biological activity.) | 0.002 | did not suppress biological activity relative to SEQ ID NO:2 | 100 nmol | –
SEQ ID NO:12 hairpin form: SEQ ID NO:12 modified by induced oxidation of the SH-groups to a closed loop (CQSLQEYLAEQNQRQLESNKIPEVDLARVVAPFMSNIPLLLYPQDRPRSQPQPKANEDVC; disulfide 1-60 (inferred)) | – | enhanced biological activity | – | Activity relative to the linear form of SEQ ID NO:12 [1]: 5 times; Potency relative to SEQ ID NO:1 [1]: 425 times; Concentration at which binding activity was induced (active at) [1]: 0.4 pM
SEQ ID NO:4: Table 1 sequence: Gln-Pro-Gln-Pro-Lys-Ala-Asn-Glu-Asp-Val-Cys-Gln-Asp-Cys-Met (QPQPKANEDVCQDCM; Addition of amino acids distal to the terminal asparagine of SEQ ID NO 3 does not substantially change biological activity.) | 0.002 | did not substantially change biological activity | 85 nmol | –
SEQ ID NO:6: Table 1 sequence: Tyr-Pro-Gln-Asp-Arg-Thr-Arg-Ser-Gln-Pro-Gln-Cys (YPQDRTRSQPQC; Replacement of the terminal proline of SEQ ID NO 2 with a cysteine does not substantially change biological activity.) | 0.0005 | minimal change in biological activity relative to SEQ ID NO:2 | 370 nmol | –
SEQ ID NO:12 linear form: SEQ ID NO:12 as synthesized, 60 amino acid molecule (CQSLQEYLAEQNQRQLESNKIPEVDLARVVAPFMSNIPLLLYPQDRPRSQPQPKANEDVC; Synthetic peptide embodying the complete intervening sequence between rat saposin A and saposin B.) | – | substantial biological activity | – | Potency relative to SEQ ID NO:9 [1]: approximately 90 times; Concentration at which binding activity was induced (active at) [1]: 2 pM
SEQ ID NO:7: Table 1 sequence: Acetyl-Tyr-Pro-Gln-Asp-Arg-Thr-Arg-Ser-Gln-Pro-Gln-Pro (Ac-YPQDRTRSQPQP) | 0.003 | did not suppress biological activity relative to SEQ ID NO:2 | 50 nmol | –
SEQ ID NO:10: Table 1 sequence: L-Leu-Tyr-Pro-Gln-Asp-Arg-Thr-Arg-Ser-Gln-Pro-Gln-Pro-Lys-Ala-Asn (LYPQDRTRSQPQPKAN; L-amino acids; SITE 1 L-isomer) | 0.94 | greater than that of SEQ ID NO:11; also recorded: reduced activity relative to SEQ ID NO:1 | 8.8 nmol | –
CQSLQEYLAEQNQRQLESNKIPEVDLARVVAPFMSNIPLLLYPQDRPRSQPQPKANEDVC (cysteine pairing not given here) [SEQ ID NO:12] | – | conferred substantial binding activity especially when oxidized to form a molecule with a hairpin form | – | –
B1 | – | – | – | Binding restored, percent of that obtained by exposure to UPSEBP ([2]; UPSEBP 2 μg/million sperm): about 70%
B2 | – | – | – | Restoration of binding (in words) [2]: ineffective at restoring binding
B3 | – | – | – | Restoration of binding (in words) [2]: ineffective at restoring binding
B4 | – | – | – | Restoration of binding (in words) [2]: ineffective at restoring binding
